Test results published in patent US12043601B2, “N-substituted-1H-1,2,4-triazole-3-carboxamides, analogues thereof, and methods of treatment using same” (THE REGENTS OF THE UNIVERSITY OF COLORADO, priority 2018, dated 2024).
≈ marks a conversion by molar mass, not a printed value. Where “and” joins values, the source holds several entries; their conditions need not be identical. Equal entries are not always repeated. Entries after “also recorded” stand apart in the source; their conditions may differ. Where two headings read alike, the source gives them in different places.

Tests used:
[1] = molecular target: T1, DksA (Salmonella typhimurium, UniProt P0A1G5); assay: DksA-mediated repression of rpsM in vitro transcription (IVT, qRT-PCR); type: biochemical
T1 sequence (P0A1G5 whole entry): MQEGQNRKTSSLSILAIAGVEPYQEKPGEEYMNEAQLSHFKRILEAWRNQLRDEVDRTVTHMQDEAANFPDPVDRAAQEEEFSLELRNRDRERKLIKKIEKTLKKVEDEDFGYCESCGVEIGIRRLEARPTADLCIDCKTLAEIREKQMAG
Experimental: (§1) To measure the potency of a compound in inhibition of DksA biological function, rpsMtranscripts in vitro was determined by non-radioactive in vitro transcription reactions with qPCR analysis with divergent compounds. Briefly, 5 nM pTIM-rpsMplasmid was mixed with 0.1-100 nM of compounds in 10 μl reaction buffer (40 mM HEPES [pH 7.4], 2 mM MgCl2, 60 mM potassium glutamate, 0.05% NP-40, 200 μM ATP, 200 μM GTP, 200 μM CTP, 200 μM UTP, and 5 nM E. coli RNA polymerase holoenzyme (NEB, Ipswich, MA) with 5 μM DksA. The in vitro transcription was carried out at 37° C. for 10 min, and then terminated at 70° C. for 10 min. To remove template DNA after treated with DNaseI, DNA-free DNA Removal kit (ThermoFisher) was used according to manufacturer's direction. The resulting materials were used as templates to generate cDNA with 100 U MMLV reverse transcriptase (Promega), 0.45 μM gene specific primer, and 20 U RNase inhibitor (Promega). The amount of cDNA synthesized for 1 h at 42° C. was quantified by real-time PCR (qRT-PCR). The copy number of specific transcripts was calculated to the standard curve generated with known gene copy concentrations. The IC50 is the concentration at which the curve passes through the 50% inhibition level. Standard deviation was calculated from 3 independent experiments.
The compounds obtained in this screen were further analyzed for binding to the acidic pocket at the tip of DksA coiled-coil domain using the computer search program Dock. The analysis identified over 400 compounds. A panel of 40 compounds was selected from the top hits based on free energy binding scores. These compounds were investigated using the computer modeling program O. Two additional criteria were applied in order to narrow down the list of candidates: First, the compounds needed to fit deep into the pocket without any clashes; and second, the compounds bound to DksA should have minimal exposed moieties. The compounds selected were further refined according to energy minimization as calculated by the CNS program. 23 compounds were obtained from MolPort and they were tested for their ability to interfere with DksA in a high throughput screen that combined in vitro transcription with highly specific and quantitative qRT-PCR. Five of these compounds, including N-(3,4-dimethoxyphenyl)-1H-1,2,4-triazole-3-carboxamide (1), prevented DksA-mediated repression of rpsM in vitro transcription to some degree. […] Without intending to be limited to any particular theory, the effect that 1 has on DksA-dependent rpsM or hisG gene transcription is potentially due to differences in promoter activity.
(§2) The compounds were initially tested at 0.1 μM and 1 μM using as a target the promoter of the livJ gene that encodes a transporter of branch-chain amino acids (Table 4).

[2] = molecular target: T1, DksA; assay: DksA-dependent livJ in vitro transcription; type: biochemical; conditions: livJ promoter; for IVT: concentration showing activity
Experimental: as §1, §2

[3] = molecular target: T1, DksA; assay: DksA-dependent activation of hisG in vitro transcription; type: biochemical; conditions: as little as 0.1 μM
Experimental: To measure the potency of a compound in inhibition of DksA biological function, rpsMtranscripts in vitro was determined by non-radioactive in vitro transcription reactions with qPCR analysis with divergent compounds. […] The amount of cDNA synthesized for 1 h at 42° C. was quantified by real-time PCR (qRT-PCR). The copy number of specific transcripts was calculated to the standard curve generated with known gene copy concentrations. […] Standard deviation was calculated from 3 independent experiments.
The compounds obtained in this screen were further analyzed for binding to the acidic pocket at the tip of DksA coiled-coil domain using the computer search program Dock. […] The compounds selected were further refined according to energy minimization as calculated by the CNS program. 23 compounds were obtained from MolPort and they were tested for their ability to interfere with DksA in a high throughput screen that combined in vitro transcription with highly specific and quantitative qRT-PCR. […]

[4] = system: Salmonella strain 14028s; assay: Minimum inhibitory concentration in EG minimal media; type: cell-based, Salmonella Typhimurium; conditions: for Growth in EG at concentration tested 1 μg/ml / Growth in EG at concentration tested 2 μg/ml / Growth in EG at concentration tested 4 μg/ml / Growth in EG at concentration tested 8 μg/ml / Growth in EG at concentration tested 16 μg/ml: EG minimal media, 37° C.
Experimental: (§3) DksA controls transcription of metabolic and virulence genes, allowing bacteria to both grow in minimum media and cause disease. Inhibition of bacterial growth in EG minimum media was used as an easy and reliable proxy of the DksA-dependent regulation of metabolism.
In a non-limiting example, wild-type Salmonella strain 14028s was grown overnight (18.5 h), and then diluted in EG minimal media to a density of about 10^5 CFU/mL. […] Each test tube was incubated at 37° C. with shaking for 18 h and bacterial growth was evaluated. The MIC value was determined as the lowest concentration of compound that inhibited growth.

[5] = system: E. coli strain 3110; assay: Minimum inhibitory concentration in EG minimum media, E. coli; type: cell-based; conditions: Escherichia coli
From the text: as §3

[6] = system: intracellular Salmonella in J774 macrophage-like cells; assay: Intracellular growth of Salmonella in macrophages; type: cell-based; conditions: for Antimicrobial activity against intracellular Salmonella growing in macrophages: J774 cells, cell culture media containing 10% fetal bovine serum
[7] = system: J774 cells; assay: Lactate dehydrogenase (LDH) release from infected host cells; type: cell-based; conditions: 32 μg/ml; 18 h after infection with wild-type or ΔdksA Salmonella; p=0.3
[8] = Compound solubility; type: physicochemical; conditions: for Compound Solubility, 1 μM: solvent at 1 μM; for Compound Solubility, 10 μM: solvent at 10 μM; for Compound Solubility, 100 μM: solvent at 100 μM; for Compound Solubility, 1 mM: solvent at 1 mM; for Compound Solubility, 10 mM: solvent at 10 mM; for Compound Solubility, 16 mg/ml: solvent at 16 mg/ml
[9] = system: Salmonella; assay: Disk diffusion assay; type: cell-based; conditions: among drugs that inhibited DksA function in the in vitro screens
Experimental: Salmonella was grown overnight in LB broth at 37° C. with shaking. The bacterial cultures were diluted by 1:1000 with PBS. 100 μl of the diluted samples were transferred into E-salts glucose agar. The bacteria were spread on the surface of the agar. Two discs (BBL blank paper discs 6 mm) were placed per/plate, and 10 μl of 10 mM or 100 mM stock compound were added to the discs. The plates were incubated at 37° C. overnight. The diameter of inhibition was expressed in mm.

[10] = system: SPI2 effector sifA; assay: Intracellular expression of SPI2 effector sifA in infected macrophages; type: cell-based; conditions: Salmonella-infected macrophages, 16 μg/ml
[11] = system: T2, E. coli RNA polymerase holoenzyme; assay: rpsM in vitro transcription by RNA polymerase itself; type: biochemical; conditions: up to 10 μM
T2 construct: purchased NEB, Ipswich, MA
T2 sequence (P0A7Z4 whole entry): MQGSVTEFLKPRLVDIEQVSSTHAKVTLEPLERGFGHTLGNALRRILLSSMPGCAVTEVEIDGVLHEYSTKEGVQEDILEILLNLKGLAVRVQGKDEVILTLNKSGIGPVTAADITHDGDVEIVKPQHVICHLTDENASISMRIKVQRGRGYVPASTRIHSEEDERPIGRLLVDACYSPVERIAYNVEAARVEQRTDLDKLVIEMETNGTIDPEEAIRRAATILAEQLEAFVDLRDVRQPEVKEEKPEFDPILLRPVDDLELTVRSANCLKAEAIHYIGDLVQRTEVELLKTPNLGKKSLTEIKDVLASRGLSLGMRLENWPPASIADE
T2 sequence (P0A8V2 whole entry, further chain): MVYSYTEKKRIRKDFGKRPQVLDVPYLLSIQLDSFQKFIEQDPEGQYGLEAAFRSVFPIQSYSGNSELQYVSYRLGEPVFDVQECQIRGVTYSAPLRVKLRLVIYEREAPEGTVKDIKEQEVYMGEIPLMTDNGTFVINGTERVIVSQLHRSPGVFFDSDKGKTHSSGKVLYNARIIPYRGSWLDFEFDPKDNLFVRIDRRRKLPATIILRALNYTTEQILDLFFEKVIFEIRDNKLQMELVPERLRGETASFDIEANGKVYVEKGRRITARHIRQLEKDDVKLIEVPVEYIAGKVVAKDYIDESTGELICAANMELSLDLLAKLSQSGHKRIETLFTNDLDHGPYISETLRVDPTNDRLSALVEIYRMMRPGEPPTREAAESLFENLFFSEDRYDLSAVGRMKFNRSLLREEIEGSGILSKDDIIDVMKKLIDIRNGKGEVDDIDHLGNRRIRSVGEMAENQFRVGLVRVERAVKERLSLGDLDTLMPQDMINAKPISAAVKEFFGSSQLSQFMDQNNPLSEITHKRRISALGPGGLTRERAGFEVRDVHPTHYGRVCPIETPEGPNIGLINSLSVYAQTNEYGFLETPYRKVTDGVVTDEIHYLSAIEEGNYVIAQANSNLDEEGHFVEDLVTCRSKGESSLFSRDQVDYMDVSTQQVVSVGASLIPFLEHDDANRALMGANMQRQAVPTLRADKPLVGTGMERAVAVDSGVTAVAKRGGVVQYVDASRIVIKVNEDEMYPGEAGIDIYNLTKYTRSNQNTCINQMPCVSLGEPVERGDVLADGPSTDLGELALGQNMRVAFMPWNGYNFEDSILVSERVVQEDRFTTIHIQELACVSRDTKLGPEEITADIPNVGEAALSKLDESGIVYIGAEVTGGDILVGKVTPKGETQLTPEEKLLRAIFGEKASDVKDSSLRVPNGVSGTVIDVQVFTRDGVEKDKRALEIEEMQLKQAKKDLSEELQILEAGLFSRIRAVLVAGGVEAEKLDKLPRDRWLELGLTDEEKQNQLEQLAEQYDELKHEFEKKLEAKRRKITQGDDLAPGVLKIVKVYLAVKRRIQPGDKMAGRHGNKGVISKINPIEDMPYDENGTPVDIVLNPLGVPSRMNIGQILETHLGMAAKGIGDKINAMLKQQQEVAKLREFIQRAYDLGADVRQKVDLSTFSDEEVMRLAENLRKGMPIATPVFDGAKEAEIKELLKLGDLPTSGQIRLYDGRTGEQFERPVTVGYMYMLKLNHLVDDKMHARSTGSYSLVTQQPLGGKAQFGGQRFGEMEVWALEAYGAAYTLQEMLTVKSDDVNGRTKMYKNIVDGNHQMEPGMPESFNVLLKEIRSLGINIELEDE
T2 sequence (P0A8T7 whole entry, further chain): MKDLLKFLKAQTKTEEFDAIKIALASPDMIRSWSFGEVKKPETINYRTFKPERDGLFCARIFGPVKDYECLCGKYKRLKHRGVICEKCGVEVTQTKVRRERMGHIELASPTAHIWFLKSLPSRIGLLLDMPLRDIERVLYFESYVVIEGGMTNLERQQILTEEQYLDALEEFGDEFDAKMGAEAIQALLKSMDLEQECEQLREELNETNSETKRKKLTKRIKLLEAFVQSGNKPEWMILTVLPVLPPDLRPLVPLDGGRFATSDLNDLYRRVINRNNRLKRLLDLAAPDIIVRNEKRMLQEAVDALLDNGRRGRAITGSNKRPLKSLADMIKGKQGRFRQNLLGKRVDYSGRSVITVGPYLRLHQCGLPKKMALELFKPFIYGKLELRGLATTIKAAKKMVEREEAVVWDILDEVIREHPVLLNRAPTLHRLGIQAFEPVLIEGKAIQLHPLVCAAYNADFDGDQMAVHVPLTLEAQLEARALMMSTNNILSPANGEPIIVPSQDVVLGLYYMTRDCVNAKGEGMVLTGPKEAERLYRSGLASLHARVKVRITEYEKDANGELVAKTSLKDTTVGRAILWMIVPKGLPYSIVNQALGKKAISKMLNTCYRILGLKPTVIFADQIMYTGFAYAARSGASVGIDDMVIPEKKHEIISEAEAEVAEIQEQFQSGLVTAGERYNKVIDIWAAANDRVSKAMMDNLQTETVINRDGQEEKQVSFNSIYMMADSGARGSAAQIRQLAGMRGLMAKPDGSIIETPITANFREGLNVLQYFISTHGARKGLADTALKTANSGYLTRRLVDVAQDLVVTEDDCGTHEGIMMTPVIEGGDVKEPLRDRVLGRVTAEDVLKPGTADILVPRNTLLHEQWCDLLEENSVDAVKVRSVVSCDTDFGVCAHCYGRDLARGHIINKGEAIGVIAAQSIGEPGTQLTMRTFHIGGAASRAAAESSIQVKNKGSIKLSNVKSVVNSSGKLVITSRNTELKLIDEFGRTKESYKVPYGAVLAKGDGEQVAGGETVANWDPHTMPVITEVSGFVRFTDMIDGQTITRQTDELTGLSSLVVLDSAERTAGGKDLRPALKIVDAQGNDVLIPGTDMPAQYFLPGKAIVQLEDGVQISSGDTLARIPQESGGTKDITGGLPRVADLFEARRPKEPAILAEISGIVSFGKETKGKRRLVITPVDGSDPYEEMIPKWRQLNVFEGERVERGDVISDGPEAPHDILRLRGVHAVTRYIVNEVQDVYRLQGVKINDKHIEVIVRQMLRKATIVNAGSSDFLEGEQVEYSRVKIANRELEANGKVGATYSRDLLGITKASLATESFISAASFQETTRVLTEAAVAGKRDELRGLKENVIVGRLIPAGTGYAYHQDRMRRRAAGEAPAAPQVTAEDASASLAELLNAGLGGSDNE
T2 sequence (P0A800 whole entry, further chain): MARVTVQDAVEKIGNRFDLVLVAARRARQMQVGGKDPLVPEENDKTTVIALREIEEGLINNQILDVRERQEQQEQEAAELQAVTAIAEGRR
T2 sequence (P00579 whole entry, further chain): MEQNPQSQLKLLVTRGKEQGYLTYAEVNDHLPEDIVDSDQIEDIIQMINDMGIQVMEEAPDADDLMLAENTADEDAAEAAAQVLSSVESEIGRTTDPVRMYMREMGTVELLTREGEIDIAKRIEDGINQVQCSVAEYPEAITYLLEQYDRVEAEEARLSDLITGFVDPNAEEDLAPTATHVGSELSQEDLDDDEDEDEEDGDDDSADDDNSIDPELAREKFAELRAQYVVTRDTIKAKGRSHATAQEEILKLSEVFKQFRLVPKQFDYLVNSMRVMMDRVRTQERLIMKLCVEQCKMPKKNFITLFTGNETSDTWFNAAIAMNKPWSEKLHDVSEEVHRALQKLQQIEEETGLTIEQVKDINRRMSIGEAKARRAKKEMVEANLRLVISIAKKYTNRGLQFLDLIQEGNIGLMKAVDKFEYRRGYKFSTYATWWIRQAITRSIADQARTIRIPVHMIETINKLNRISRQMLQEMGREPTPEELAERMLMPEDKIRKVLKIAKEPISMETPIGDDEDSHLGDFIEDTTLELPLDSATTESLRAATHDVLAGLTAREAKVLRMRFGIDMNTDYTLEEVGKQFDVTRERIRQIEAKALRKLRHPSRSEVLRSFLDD
Experimental: as §1, with “Briefly, 5 nM pTIM-rpsMplasmid was mixed with 0.1-100 nM of compounds in 10 μl reaction buffer (40 mM HEPES [pH 7.4], 2 mM MgCl2, 60 mM potassium glutamate, 0.05% NP-40, 200 μM ATP, 200 μM GTP, 200 μM CTP, 200 μM UTP, and 5 nM E. coli RNA polymerase holoenzyme (NEB, Ipswich, MA) with 5 μM DksA.” left out
The compounds obtained in this screen were further analyzed for binding to the acidic pocket at the tip of DksA coiled-coil domain using the computer search program Dock. The analysis identified over 400 compounds. […] The compounds selected were further refined according to energy minimization as calculated by the CNS program. […]

[12] = system: Salmonella strain 14028s; assay: Growth and survival assay in combination with antibiotics that target DNA replication; type: cell-based; conditions: #21 8 μg/ml, #23 16 μg/ml; EG media, 37° C., 20 hrs
Experimental: Salmonella strain 14028s was grown overnight at 37° C. with shaking in LB broth. Cell density was measured by spectrometer by following OD600. Cells were centrifuged and washed once with EG Minimal Salts Media (57.4 mM K2HPO4, 1.7 mM MgSO4, 9.5 mM Citric acid, 16.7 mM H5NNaPO4, and 0.4% D-Glucose, pH 7.0). The specimens were then resuspended with EG media and adjusted to the final concentration of 1×10^5/ml.
One hundred microliters of the cell dilution were plated onto LB agar plate to verify the starting concentration. Ten 5-ml cell culture tubes were prepared, and the diluted cells were transferred to the culture tubes at 1 ml/tube. The first culture tube was reserved as the control. The remaining nine tubes were divided into 3 groups (3 tubes each), which were treated with Nitrofurazone, 4-Nitroquinoline N-oxide, and Mitomycin C at 8 μM, 8 μM, and 0.75 μM, respectively. Within each group, two of the tubes additionally received compounds #21 or #23 at 8 μg/ml and 16 μg/ml, respectively. All tubes were then incubated with shaking at 37° C. for 20 hrs. Cells were collected, diluted, plated on LB agar plates, and subsequently counted. Survival percentages were calculated using bacteria counts divided by starting concentration.

Compound | In vitro transcription assay result, 0.1 μM [2] | In vitro transcription assay result, 1 μM [2] | IVT [2] [µM] | Growth in EG at concentration tested 1 μg/ml ([4]; 18 h) | Growth in EG at concentration tested 2 μg/ml ([4]; 18 h) | Growth in EG at concentration tested 4 μg/ml ([4]; 18 h) | Growth in EG at concentration tested 8 μg/ml ([4]; 18 h) | Growth in EG at concentration tested 16 μg/ml ([4]; 18 h) | MIC ([4]; Salmonella, 14028S, 18 h) [µg/mL] | Compound Solubility, 1 μM [8] | Compound Solubility, 10 μM [8] | Compound Solubility, 100 μM [8] | Compound Solubility, 1 mM [8] | Compound Solubility, 10 mM [8] | Compound Solubility, 16 mg/ml [8] | other results
COc1ccc(NC(=O)c2nc[nH]n2)cc1OC [Compound 1, N-(3,4-dimethoxyphenyl)-1H-1,2,4-triazole-3-carboxamide] | no change | good repression | 1 | + | + | + | + | + | 32 (≈ 129 µM) | water | water | water | water | water | DMSO | Inhibition of DksA-mediated repression of rpsM in vitro transcription ([1]; 1 μM): completely inhibited; Activity against DksA-mediated repression of rpsM in vitro transcription ([1]; qualitative, listed as 916): excellent activity; also recorded: best in vitro efficacy; Inhibition of DksA-dependent activation of hisG in vitro transcription [3]: completely inhibited; MIC ([4]; read-out: Minimum inhibitory concentration): 32 µg/mL and 129 µM; MIC [5]: 32 µg/mL; MIC ([5]; converted): 129 µM; Antimicrobial activity against intracellular Salmonella growing in macrophages [6]: potent antimicrobial activity; Antimicrobial activity against intracellular Salmonella growing in macrophages ([6]; listed as 916): inhibits intracellular growth; Intracellular growth of ΔdksA Salmonella ([6]; ΔdksA Salmonella, off-target control): unaffected; Lactate dehydrogenase (LDH) released from J774 cells [7]: did not change; Anti-Salmonella activity in disk diffusion assays [9]: greatest anti-Salmonella activity; Intracellular expression of the SPI2 effector sifA [10]: repressed transcription; Intracellular expression of the SPI2 effector sifA ([10]; listed as 916): inhibits the intracellular expression; Effect on rpsM in vitro transcription by the RNA polymerase itself [11]: did not affect
COc1ccc(CCNC(=O)c2nc[nH]n2)cc1 [Compound 21, N-(4-methoxyphenethyl)-1H-1,2,4-triazole-3-carboxamide] | no induction | no induction | 0.1 | + | + | + | + | + | 32 (≈ 130 µM) | water | water | water | water | water | DMSO | Anti-Salmonella activity of 4-nitroquinoline-N-oxide, nitrofurazone and mytomycin in combination [12]: enhanced the anti-Salmonella activity
